This is an account of results in PubChem BioAssay AID2483 (Sanford-Burnham Center for Chemical Genomics, 2010).

The source made the active and inactive calls. The rule behind the calls is not given here. A value given as a limit tells only on which side of the number the result lay.

One may read the IC50 as the concentration that inhibits the measured activity by half.

The test system of this assay is TNFa-induced NF-kB reporter inhibition, human cells. The assay can be described thus: TNFa-triggered NF-kB activation inhibitors, SAR follow-up, cell-based, set 2 (AID 2483).
As for `CCCCn1c(SCC(=O)Nc2nnc(CC)s2)nc2c1c(=O)n(C)c(=O)n2C`, the IC50 was 13.1 µM.

Consider `CCCCCn1c(SCCc2ccccc2)nc2c1c(=O)[nH]c(=O)n2C`, for which the IC50 was > 20 µM (inactive).

For `C/C=C/Cn1c(SCc2ccccc2)nc2c1c(=O)[nH]c(=O)n2C`, the IC50 was > 20 µM (inactive).

In the case of `Cc1ccc(S(=O)(=O)n2c(N)nc3ccccc32)cc1`, the IC50 was > 20 µM (inactive).

Turning to `CCC(=O)Nc1nc2ccccc2n1Cc1ccccc1Cl`, the IC50 was 16.9 µM.

With `CCCCn1c(SCC(=O)c2ccccc2)nc2c1c(=O)[nH]c(=O)n2C`, the IC50 is > 20 µM (inactive).

As for `CCCn1c(SCC(=O)Nc2nc3c(s2)CCCC3)nc2c1c(=O)n(C)c(=O)n2C`, the IC50 was 3.31 µM.

In the case of `COCCn1c(SCCCc2ccccc2)nc2c1c(=O)[nH]c(=O)n2C`, the IC50 is > 20 µM (inactive).

For the compound `C/C=C/Cn1c(SCc2ccc(Cl)cc2)nc2c1c(=O)[nH]c(=O)n2C`, the IC50 is > 20 µM (inactive).

With `CC(C)n1c(SCCCc2ccccc2)nc2c1c(=O)[nH]c(=O)n2C`, the IC50 was > 20 µM (inactive).

Turning to `CCCn1c(SCCc2ccccc2)nc2c1c(=O)[nH]c(=O)n2C`, the IC50 was > 20 µM (inactive).

Regarding `Cn1c(=O)[nH]c(=O)c2c1nc([N+](=O)[O-])n2Cc1ccccc1`, the IC50 is 1.32 µM.

As to `C/C=C/Cn1c(SCCCc2ccccc2)nc2c1c(=O)[nH]c(=O)n2C`, the IC50 was 8.49 µM.

Turning to `CCCCn1c(CN2CCN(c3cccc(Cl)c3)CC2)nc2c1c(=O)n(C)c(=O)n2C`, the IC50 is 5.69 µM.

Regarding `O=C(Nc1nc2ccccc2n1Cc1ccc(Cl)cc1)c1ccco1`, the IC50 is > 20 µM (inactive).

Regarding `CC(C)Sc1nc2c(c(=O)[nH]c(=O)n2C)n1Cc1ccccc1`, the IC50 was > 20 µM (inactive).

For the compound `C=CCn1c(SCCCc2ccccc2)nc2c1c(=O)[nH]c(=O)n2C`, the IC50 is 16.8 µM.

As for `C/C(Cl)=C\Cn1c(NCCc2ccccc2)nc2c1c(=O)n(C)c(=O)n2C`, the IC50 is 5.21 µM.
